For data set [1], the target named is T1, recombinant human 17β-HSD1 (Homo sapiens, UniProt P14061).
T1 construct: made in house; host or cells: Sd9 (Sf9) insect cells, baculovirus (Bac to Bac Expression System)
T1 sequence (P14061 1-328): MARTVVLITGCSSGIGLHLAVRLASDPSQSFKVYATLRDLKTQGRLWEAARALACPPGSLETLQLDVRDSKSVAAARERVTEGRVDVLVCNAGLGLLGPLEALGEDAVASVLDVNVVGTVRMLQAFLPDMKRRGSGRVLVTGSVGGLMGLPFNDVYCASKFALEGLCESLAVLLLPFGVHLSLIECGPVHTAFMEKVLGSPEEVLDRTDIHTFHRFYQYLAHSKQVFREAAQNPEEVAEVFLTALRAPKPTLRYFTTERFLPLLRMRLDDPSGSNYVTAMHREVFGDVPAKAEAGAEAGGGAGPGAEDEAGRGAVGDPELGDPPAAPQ
As to the kind of experiment: Inhibition of recombinant human 17β-HSD1 (conversion of 3H-estrone to estradiol, HPLC). Particulars: inhibitor 1 μM, 30 nM estrone, 1 mM NADPH, 30 min RT; for inhibition at 1 µM: read-out: 17β-HDS1 Inhibition % at 1 μM. Type of data set: biochemical. As to the method: 17β-HSD1 production and isolation: Recombinant baculovirus was generated by the “Bac to Bac Expression System” (Invitrogen). Recombinant bacmid was transfected to Sd9 insect cells using “Cellfectin Reagent” (Invitrogen). 60 h later cells were harvested; the microsomal fraction was isolated as described by Puranen, T. J., Poutanen, M. H., Peltoketo, H. E., Vihko, P. T. and Vihko, R. K. (1994) Site-directed mutagenesis of the putative active site of human 17 β-hydroxysteroid dehydrogenase type 1. Biochem. J. 304: 289-293. Aliquots were stored frozen until determination of enzymatic activity.
Assay—Inhibition of recombinant human 17β-HSD1: Protein homogenate (0.1 μg/ml) was incubated in 20 mM KH2PO4 pH 7.4 with 30 nM estrone (including 800 000 cpm/ml of ^3H-estrone) and 1 mM NADPH for 30 min at RT, in the presence of the potential inhibitor at concentrations 1 μM or 0.1 μM. Inhibitor stock solutions were prepared in DMSO. Final concentration of DMSO was adjusted to 1% in all samples. The enzyme reaction was stopped by addition of 10% trichloroacetic acid (final concentration). Samples were centrifuged in a microtiter plate at 4000 rpm for 10 min. Supernatants were applied to reverse phase HPLC on a Waters Symmetry C18 column, equipped with a Waters Sentry Guard column. Isocratic HPLC runs were performed at RT at a flow rate of 1 ml/min in acetonitrile:water 48:52 as running solvent. Radioactivity was monitored in the eluate by a Packard Flow Scintillation Analyzer. Total radioactivity for estrone and estradiol were determined in each sample and percent conversion of estrone to estradiol was calculated according to the following formula:
(§1) Percent inhibition was calculated flowingly: % inhibition=100−% conversion

In data set [2] the target is T2, recombinant human 17β-HSD2 (Homo sapiens, UniProt P37059).
T2 construct: made in house; host or cells: Sd9 (Sf9) insect cells, baculovirus (Bac to Bac Expression System)
T2 sequence (P37059 1-387): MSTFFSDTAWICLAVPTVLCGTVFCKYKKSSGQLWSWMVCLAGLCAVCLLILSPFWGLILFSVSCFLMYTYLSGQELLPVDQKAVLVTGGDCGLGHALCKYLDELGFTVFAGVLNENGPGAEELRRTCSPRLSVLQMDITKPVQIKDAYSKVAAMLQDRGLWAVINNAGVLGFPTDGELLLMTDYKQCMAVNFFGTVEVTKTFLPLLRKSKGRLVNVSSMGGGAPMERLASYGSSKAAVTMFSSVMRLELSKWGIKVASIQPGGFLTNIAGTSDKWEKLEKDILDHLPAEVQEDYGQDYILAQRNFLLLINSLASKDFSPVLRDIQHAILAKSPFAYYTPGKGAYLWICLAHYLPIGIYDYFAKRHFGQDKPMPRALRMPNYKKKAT
As to the kind of experiment: Inhibition of recombinant human 17β-HSD2 (conversion of 3H-estradiol to estrone, HPLC). Type of data set: biochemical. Conditions: inhibitor 1 μM; 50 nM estradiol, 1 mM NADH, 30 min RT. As to the method:
17β-HSD2 production and isolation: Similarly to 17β-HSD1 the Recombinant baculovirus was generated by the “Bac to Bac Expression System” (Invitrogen). Recombinant bacmid was transfected to Sd9 insect cells using “Cellfectin Reagent” (Invitrogen). 60 h later cells were harvested and supernatant were fractionated by the following protocol: • cells were dissolved into 40 ml of A-buffer (40 mM TRIS, pH8.0, 20% glycerol, 20 μM NAD, 0.4 mM PMSF, 150 mM NaCl, 0.5% dodecyl-β-maltoside+protease inhibitor cocktail) • cells were sonicated • lysate was incubated on ice for 15 min • lysate was centrifuged 5000 rpm 15 min, +4° C. • centrifugation of the supernatant 180 000 g 30 min, +4° C. • pellet was dissolved into 8 ml of A-buffer • not resuspended material was removed by centrifugation 5000 rpm 15 min, +4° C. • the clear supernatant was divided into 100 μl aliquots and were stored frozen until determination of enzymatic activity.
The amount of 17β-HSD2 was analysed by immunoblotting and total protein concentration of each extract batch was determined.
Assay—Inhibition of recombinant human 17β-HSD2: Protein homogenate (4 μg/ml) was incubated in 20 mM KH2PO4 pH 8.5 with 50 nM estradiol (including 800 000 cpm/ml of ^3H-estradiol) and 1 mM […] for 30 min at RT, in the presence of the potential inhibitor at concentrations 1 μM or 0.1 μM. Inhibitor stock solutions were prepared in DMSO. Final concentration of DMSO was adjusted to 1% in all samples. The enzyme reaction was stopped by addition of 10% trichloroacetic acid (final concentration). Samples were centrifuged in a microtiter plate at 4000 rpm for 10 min. Supernatants were applied to reverse phase HPLC on a Waters Symmetry C18 column, equipped with a Waters Sentry Guard column. Isocratic HPLC runs were performed at RT at a flow rate ofl ml/min in acetonitrile:water 48:52 as running solvent. Radioactivity was monitored in the eluate by a Packard Flow Scintillation Analyzer. Total radioactivity for estrone and estradiol were determined in each sample and percent conversion of estradiol to estrone was calculated according to the following formula:
as §1

Data set [3] in a line: Metabolic stability assay. The class given is in vitro ADME. Conditions: human liver homogenate or microsomes. As for the experimental part:
The in vitro metabolic stability of the parent compounds was determined for exemplified compounds using human liver microsome and homogenate incubations. The incubation time points used with or without appropriate cofactors were 0 min and 60 min. Samples were collected at both time points and substrates were detected using LC/PDA/TOF-MS. In vitro metabolic stability (% remaining after 60 min in human liver homogenate or microsomes) of the compounds were calculated and the results are summarized in Table 4.

For the molecule “3-{(13S,15R)-2-Fluoro-3-hydroxy-17-[(E)-methoxyimino]-13-methyl-7,8,9,11,12,13,14,15,16,17-decahydro-6H-cyclopenta[a]phenanthren-15-yl}-N-(5-methylthiazol-2-yl)propanamide [VIV-15]”, the “17β-HDS1 Inhibition % at 1 μM” value in data set [1] was 94%. Further, the “17β-HSD2 Inhibition % at 1 μM” value in data set [2] turned out to be 5%. The “In vitro metabolic stability, % remaining after 60 min” value in data set [3] was found to be 92%.

As for “3-{(13S,15R)-4-Fluoro-3-hydroxy-17-[(E)-methoxyimino]-13-methyl-7,8,9,11,12,13,14,15,16,17-decahydro-6H-cyclopenta[a]phenanthren-15-yl}-N-(5-methylthiazol-2-yl)propanamide [VIV-16]”, the “17β-HDS1 Inhibition % at 1 μM” value in data set [1] came out at 90%. Moreover, the “17β-HSD2 Inhibition % at 1 μM” value in data set [2] worked out at 7%. The “In vitro metabolic stability, % remaining after 60 min” value in data set [3] came out at 68%.

With `Cc1cnc(NC(=O)CC[C@@H]2CC(=O)[C@@]3(C)CCC4c5ccc(O)cc5CCC4C23)s1` (stereo partly shown) [VII, reference compound], the “In vitro metabolic stability, % remaining after 60 min” value in data set [3] worked out at 13%.

For `CO/N=C1\C[C@@H](CCC(=O)Nc2ncc(C)s2)C2C3CCc4cc(O)c(Br)cc4C3CC[C@]12C` (stereo partly drawn) [VIV-9, 3-{(13S,15R)-2-Bromo-3-hydroxy-17-[(E)-methoxyimino]-13-methyl-7,8,9,11,12,13,14,15,16,17-decahydro-6H-cyclopenta[a]phenanthren-15-yl}-N-(5-methylthiazol-2-yl)-propanamide], the inhibition at 1 µM in data set [1] came out at 81%; in data set [2], 1%. In data set [3], the “In vitro metabolic stability, % remaining after 60 min” value is 34%.

On to `Cc1cnc(NC(=O)CC[C@@H]2C/C(=N\O)[C@@]3(C)CCC4c5cc([N+](=O)[O-])c(O)cc5CCC4C23)s1` (stereo partly drawn) [VIV-23, 3-{(13S,15R)-3-Hydroxy-2-nitro-17-[(E)-hydroxyimino]-13-methyl-7,8,9,11,12,13,14,15,16,17-decahydro-6H-cyclopenta[a]phenanthren-15-yl}-N-(5-methylthiazol-2-yl)propanamide], for which the inhibition at 1 µM in data set [1] was determined as 95%; in data set [2], 6%.

Consider `Cc1cnc(NC(=O)CC[C@@H]2C/C(=N\O)[C@@]3(C)CCC4c5ccc(O)c([N+](=O)[O-])c5CCC4C23)s1` (stereo partly drawn) [VIV-24, 3-{(13S,15R)-3-Hydroxy-4-nitro-17-[(E)-hydroxyimino]-13-methyl-7,8,9,11,12,13,14,15,16,17-decahydro-6H-cyclopenta[a]phenanthren-15-yl}-N-(5-methylthiazol-2-yl)propanamide], for which the inhibition at 1 µM was 96% in data set [1] and 33% in data set [2].

As for `Cc1cnc(NC(=O)CC[C@@H]2C/C(=N\O)[C@@]3(C)CCC4c5cc(Br)c(O)cc5CCC4C23)s1` (stereo partly drawn) [VIV-25, 3-{(13S,15R)-2-Bromo-3-hydroxy-17-[(E)-hydroxyimino]-13-methyl-7,8,9,11,12,13,14,15,16,17-decahydro-6H-cyclopenta[a]phenanthren-15-yl}-N-(5-methylthiazol-2-yl)propanamide], the values for the inhibition at 1 µM in data set [1] and in data set [2] were 77% and 25%, respectively.

`Cc1cnc(NC(=O)CC[C@@H]2C/C(=N\O)[C@@]3(C)CCC4c5ccc(O)c(Br)c5CCC4C23)s1` (stereo partly drawn) [VIV-26, 3-{(13S,15R)-4-Bromo-3-hydroxy-17-[(E)-hydroxyimino]-13-methyl-7,8,9,11,12,13,14,15,16,17-decahydro-6H-cyclopenta[a]phenanthren-15-yl}-N-(5-methylthiazol-2-yl)propanamide]: the inhibition at 1 µM in data set [1] was found to be 89%; in data set [2], 15%.

`Cc1cnc(NC(=O)CC[C@@H]2C/C(=N\O)[C@@]3(C)CCC4c5cc(Br)c(O)c(Br)c5CCC4C23)s1` (stereo partly drawn) [VIV-27, 3-{(13S,15R)-2,4-Dibromo-3-hydroxy-17-[(E)-hydroxyimino]-13-methyl-7,8,9,11,12,13,14,15,16,17-decahydro-6H-cyclopenta[a]phenanthren-15-yl}-N-(5-methylthiazol-2-yl)propanamide]: the inhibition at 1 µM is 98% in data set [1] and 28% in data set [2].

Turning to `Cc1cnc(NC(=O)CC[C@@H]2C/C(=N\O)[C@@]3(C)CCC4c5cc(Cl)c(O)cc5CCC4C23)s1` (stereo partly drawn) [VIV-28, 3-{(13S,15R)-2-Chloro-3-hydroxy-17-[(E)-hydroxyimino]-13-methyl-7,8,9,11,12,13,14,15,16,17-decahydro-6H-cyclopenta[a]phenanthren-15-yl}-N-(5-methylthiazol-2-yl)propanamide], the inhibition at 1 µM stood at 98% in data set [1] and 21% in data set [2].

For `Cc1cnc(NC(=O)CC[C@@H]2C/C(=N\O)[C@@]3(C)CCC4c5ccc(O)c(Cl)c5CCC4C23)s1` (stereo partly drawn) [VIV-29, 3-{(13S,15R)-4-Chloro-3-hydroxy-17-[(E)-hydroxyimino]-13-methyl-7,8,9,11,12,13,14,15,16,17-decahydro-6H-cyclopenta[a]phenanthren-15-yl}-N-(5-methylthiazol-2-yl)propanamide], the results for the inhibition at 1 µM in data set [1] and in data set [2] were 98% and 21%, respectively.

Turning to `Cc1cnc(NC(=O)CC[C@@H]2C/C(=N\O)[C@@]3(C)CCC4c5cc(Cl)c(O)c(Cl)c5CCC4C23)s1` (stereo partly drawn) [VIV-30, 3-{(13S,15R)-2,4-Dichloro-3-hydroxy-17-[(E)-hydroxyimino]-13-methyl-7,8,9,11,12,13,14,15,16,17-decahydro-6H-cyclopenta[a]phenanthren-15-yl}-N-(5-methylthiazol-2-yl)propanamide], the values for the inhibition at 1 µM in data set [1] and in data set [2] were 87% and 23%, respectively.

In the case of `Cc1cnc(NC(=O)CC[C@@H]2C/C(=N\O)[C@@]3(C)CCC4c5cc(F)c(O)cc5CCC4C23)s1` (stereo partly drawn) [VIV-31, 3-{(13S,15R)-2-Fluoro-3-hydroxy-17-[(E)-hydroxyimino]-13-methyl-7,8,9,11,12,13,14,15,16,17-decahydro-6H-cyclopenta[a]phenanthren-15-yl}-N-(5-methylthiazol-2-yl)propanamide], the values for the inhibition at 1 µM in data set [1] and in data set [2] were 97% and 14%, respectively.

One may read the inhibition as the drop in the measured response relative to a control, in per cent.

The values are drawn from patent publication US10413557B2, “Prodrugs of 17.BETA.-HSD1-inhibitors” (FORENDO PHARMA LTD, priority 2014, dated 2019).
